This note sets out measurements from ChEMBL document CHEMBL4270652, “Design, synthesis, and biological activity of substituted 2-amino-5-oxo-5H-chromeno[2,3-b]pyridine-3-carboxylic acid derivatives as inhibitors of the inflammatory kinases TBK1 and IKKε for the treatment of obesity” (Bioorg Med Chem, 2018).

The subject of data set [1] is Mus musculus. Description: Induction of insulin-induced hypoglycemia in C57BL/6 obese mouse model at 25 mg/kg administered daily via oral gavage measured post 4 weeks of treatment by insulin tolerance test. The format is functional, organism-based.
In data set [2] the test system is Mus musculus. Kind of data set: Antidiabetic activity in C57BL/6 obese mouse model assessed as reduction in blood glucose level at 25 mg/kg administered daily via oral gavage measured post 3 weeks of treatment by glucose tolerance test. The data set is classed as functional, organism-based.
The subject of data set [3] is Mus musculus. Kind of data set: Increase in serum IL6 levels in C57BL/6 obese mouse model at 25 mg/kg administered via oral gavage measured 6 hrs post treatment by ELISA. The data set is classed as functional, organism-based.
The nature of the next data set: physchem. To be noted: PBS, pH 7.4.
In data set [4] the test system is Mus musculus. Description: Antiobesity activity in C57BL/6 obese mouse model assessed as body weight loss at 25 mg/kg administered daily via oral gavage measured post 4 weeks of treatment. The data set is classed as functional, organism-based.

The structures appear in SMILES notation. Converted amounts (≈) assume the structure as drawn. The source made the active and inactive calls. The rule behind the calls is not given here. Some results are limits rather than exact numbers.

Description for physchem: Thermodynamic aqueous solubility in PBS of pH 7.4 after overnight incubation by chemiluminescent nitrogen detection

As for `CC(C)c1ccc2oc3nc(N)c(C(=O)O)cc3c(=O)c2c1`, the result with Mus musculus [1], in the data set with Mus musculus [2] and with Mus musculus [3] was Active. Turning to `CC(C)c1ccc2c(=O)c3cc(C(=O)O)c(N)nc3oc2c1`, the solubility (thermodynamic) in “physchem” stood at 19.1 µM (≈ 5.7 µg/mL).

In the case of `CC(C)c1cccc2oc3nc(N)c(C(=O)O)cc3c(=O)c12`, the thermodynamic solubility in the data set “physchem” amounted to 229 µM (≈ 68.4 µg/mL).

Consider `CC(C)c1cc2c(=O)c3cc(C(=O)O)c(N)nc3oc2cc1F`, for which the thermodynamic solubility in “physchem” came out at 13.7 µM (≈ 4.33 µg/mL). Regarding `Nc1nc2oc3ccc(C4CCCCC4)cc3c(=O)c2cc1C(=O)O`, the result in the data set with Mus musculus [4], in the data set with Mus musculus [1], in the data set with Mus musculus [2] and in the data set with Mus musculus [3] was Active. The same compound yielded a thermodynamic solubility in “physchem” of 94.4 µM (≈ 31.9 µg/mL). In turn, `CC(=O)N1CCC(c2ccc3oc4nc(N)c(C(=O)O)cc4c(=O)c3c2)CC1` showed a solubility (thermodynamic) in the data set “physchem” of 121 µM (≈ 46 µg/mL). Same read-out and setting: in the case of `CN(C)c1ccc2oc3nc(N)c(C(=O)O)cc3c(=O)c2c1` it was 76.8 µM (≈ 23 µg/mL); in that of `CC(C)CCc1ccc2oc3nc(N)c(C(=O)O)cc3c(=O)c2c1`, 119 µM (≈ 38.8 µg/mL); in that of `Nc1nc2oc3ccc(C4CCSCC4)cc3c(=O)c2cc1C(=O)O`, 61.3 µM (≈ 21.8 µg/mL). The same measure, in the same setting: as for `Nc1nc2oc3ccc(C4CCC(=O)CC4)cc3c(=O)c2cc1C(=O)O`, the figure is under 1.1 µM; as for `CC(C)c1cc2c(=O)c3cc(C(=O)O)c(N)nc3oc2cn1`, 77.9 µM (≈ 23.3 µg/mL); as for `CC(C)Cc1ccc2oc3nc(N)c(C(=O)O)cc3c(=O)c2c1`, 179 µM (≈ 55.8 µg/mL).
